{"source": "patent US9433663B2", "about": "“Mobilization of hematopoietic stem cells” (Children's Hospital Medical Center, priority 2008, dated 2016)", "key": {"32D myeloid progenitors": {"test_system": "32D myeloid progenitors", "test": "FACS analysis of F-actin reorganization in 32D progenitors", "assay_type": "cell-based, murine", "conditions": "dose-dependent pattern", "description": "(§1) To shed light on potential roles of CASIN in HSPC mobilization, the effects of CASIN on Cdc42-related cellular functions was studied, including adhesion, migration, and F-actin polymerization of progenitor cells in 32D myeloid progenitors. […] SDF-1α stimulation causes a reorganization of F-actin into a cortical ring around the cells. […] Thirdly, to gain further insight into cellular specificity and efficacy of CASIN, and also to rule out possible toxic effects by CASIN, Cdc42-involved BM progenitor cell functions were examined, including proliferation, adhesion, migration, and F-actin polymerization, in Cdc42^+/+ cells in parallel with Cdc42^−/− cells. In line with additional studies in a Cdc42 conditional knockout mouse model as described herein, Cdc42^−/− LDBM cells have increased CFU-forming progenitors compared to those of Cdc42^+/+."}, "Lin^− BM cells": {"test_system": "Lin^− BM cells", "test": "FACS analysis of F-actin in Lin− BM cells", "assay_type": "cell-based, murine", "conditions": "column-selected Lin^− BM cells, dose-dependent pattern", "description": "as §1"}, "N-RasMA93 cells": {"test_system": "N-RasMA93 cells", "test": "adhesion of N-RasMA93 leukemia cells via CH296", "assay_type": "cell-based, human", "conditions": "in vitro", "procedure": "FIG. 5C. Adhesion of leukemia cells via CH296 without or with CASIN pre-treatment at doses of 5 and 10 μM was examined.\nLike normal HSCs, their malignant counterpart, leukemia initiating cells (LICs) reside in their BM niches that provide the structural and physiological conditions supporting their survival and growth. LICs are resistant to traditional chemotherapy by interacting with their BM microenvironment, which are the culprits of leukemia relapses after a period of remission induced by chemotherapy. Detachment of LICs from their niche by CASIN would be a valuable supplementary therapy to the traditional cancer therapies (e.g., chemotherapies). First of all, in vitro effects of CASIN were examined in adhesion, migration, and F-actin polymerization of LICs, each of which is independently important for the retention of LICs in BM niches. Retroviral transduction of an MLL-AF9 fusion cDNA together with N-Ras oncogene into normal human CD34^+cord blood cells led to the establishment of cultures of N-Ras-MA93 cells that can initiate acute myeloid leukemia in NOG mice. […] To address it, a human AML model was set up by transplanting N-RasMA93 cells into NOG mice intravenously."}, "LT-HSC, ST-HSC, and MPP": {"test_system": "LT-HSC, ST-HSC, and MPP", "test": "Example 8 kinetics of BM HSC number, cell cycle and reconstitution", "assay_type": "in vivo, C57Bl/6 mice", "procedure": "To monitor the kinetics of CASIN effects on cell number, proliferation, and cell cycle change of HSCs, four time points post-CASIN-administration are focused on in this part. The determination of the four time points depends on the PD analysis to reflect the kinetics of HSCs from relatively quiescent state through proliferative state back to the quiescent state. In this study, the following time points are used: 0, 24, 48, and 96 hours postdosing as an example. Again C57Bl/6 mice are used here. Three subpopulations of HSC/P are investigated and phenotypically defined by flow cytometry: (1) Long-term reconstituting Flk-2-HSC (LT-HSC) subset (Lin−/c-Kit+/Sca-1+/Thy1.1int/FLK2−) capable of extensive self-renewal; (2) Short-term reconstituting Flk-2int HSC(ST-HSCF) subset (Lin−/c-K1t+/Sca-1+/Thy1.1int/FLK2int), which self-renews for a limited interval; (3) Nonself-renewing Flk-2+ multipotent progenitor (MPPF) subset (Lin−/c-K1t+/Sca-1+/Thy1.1int/FLK2+).\nHarvest of PB and BM: At 0, 24, 48, and 96 h post CASIN injection, the mice are sacrificed, and then the marrow is flushed from the femurs and tibias of C57Bl/6 mice and the blood cells are collected by cardiac incision.\nChange of the frequency and total number of subpopulations of HSC/Ps in BM and PB: Both PB and BM cells are further prepared for flow cytometry analysis. Then, the frequencies of LT-HSC, ST-HSC, and MPP along the four time points are determined using the combinations of cell surface markers mentioned above phenotypically by flow cytometry. The absolute numbers of different subpopulations of HSC in BM and PB are calculated according to the total cellularity of BM and PB of the mice.\nCell cycle analysis: To characterize the cell cycle status of subpopulations of HSCs following treatment with CASIN, double-sorted cells are stained with Hoechst 33342 and Pyronin Y (H/PY), allowing simultaneous assessment of the fraction of cells with more than 2n DNA content (Hoechst 33342), as well as relative levels of total double-stranded RNA (PY). […]"}, "donor cell engraftment": {"test_system": "donor cell engraftment", "test": "Example 9 mobilization as preparative regimen for HSC transplantation", "assay_type": "in vivo, mice", "procedure": "If the microenvironmental niches are vacated after CASIN exposure, donor HSCs might engraft better in hosts treated with a mobilizing agent such as CASIN compared with non-mobilized controls. To test this, bone marrow transplantation is performed on recipient mice which are pre-conditioned with CASIN. […] Additionally, AMD3100, G-CSF, and control medium are used in parallel with CASIN as controls.\nBriefly, mice are treated with CASIN, and 4×10^7 donor bone marrow cells from congenic mouse strain are transplanted 48 h later. Donor cell engraftment is assayed at 3 months using the congenic markers by flow cytometry.\nAdditionally, multiple cycles of mobilization with CASIN may increase the number of available niches. Therefore, this study investigates whether repeated cycles of CASIN mobilization, each followed by donor cell transplantation, could result in increased engraftment. Briefly, mice receive one weekly injection of CASIN on 3 consecutive weeks and 4×10^7 donor marrow cells are transplanted 48 hours after each mobilization. Control animals also received 3 weekly infusions of 4×10^7 donor marrow cells but no CASIN. And the donor engraftment is assayed at 3 months after transplantation as well."}}, "data": [{"smiles": "OCCNC1CCCc2c1[nH]c1ccc(-c3ccccc3)cc21", "note": "(centres unmarked) [CASIN]", "values": [{"measurement": "F-actin reorganization stimulated by SDF1α", "setting": "32D myeloid progenitors", "result": "significantly dampened"}, {"measurement": "F-actin reorganization in response to SDF-1α", "setting": "Lin^− BM cells", "result": "impaired"}, {"measurement": "adhesion capacity of N-RasMA93 cells", "setting": "N-RasMA93 cells", "result": "not affected significantly"}, {"measurement": "reconstitution frequency of BM LT-HSCs", "setting": "LT-HSC, ST-HSC, and MPP; 48 hours post injection, compared to non-treated mice", "result": "significantly decreases"}, {"measurement": "cell cycle status of HSC/P subpopulations (H/PY staining)", "setting": "LT-HSC, ST-HSC, and MPP; after CASIN administration", "result": "decreased frequencies of cells in G0 phase"}, {"measurement": "numbers and frequencies of LT-HSC, ST-HSC, and MPP population in BM", "setting": "LT-HSC, ST-HSC, and MPP; post-CASIN administration", "result": "increase dramatically up to 48 h post-CASIN administration"}, {"measurement": "engraftment with 3-cycle administration and subsequent transplantation", "setting": "donor cell engraftment; 3 weekly cycles", "result": "further improved compared to one cycle"}, {"measurement": "engraftment of donor cells in pre-conditioned recipients", "setting": "donor cell engraftment; compared to the non-mobilization control", "result": "significantly increased engraftment of donor cells"}]}]}
